The values that follow come from PubChem BioAssay AID1259407 (Chemical Carcinogenesis Research Information System (CCRIS), 2018).

This data set has as its system CCRIS mutagenicity, Ames/micronucleus/aberration tests. In words: CCRIS mutagenicity studies.
Setting [1] is: Test System: AMES SALMONELLA TYPHIMURIUM, Strain/Indicator: TA98, Metabolic Activation: NONE, Method: PREINCUBATION
Where [2] appears, read: Test System: AMES SALMONELLA TYPHIMURIUM, Strain/Indicator: TA100, Metabolic Activation: NONE, Method: PREINCUBATION
The mark [3] stands for this setting: Test System: AMES SALMONELLA TYPHIMURIUM, Strain/Indicator: TA98, Metabolic Activation: NONE, Method: STANDARD PLATE.
The mark [4] stands for this setting: Test System: AMES SALMONELLA TYPHIMURIUM, Strain/Indicator: TA100, Metabolic Activation: NONE, Method: STANDARD PLATE.

Molecules are shown by their SMILES. The source made the active and inactive calls. How the calls were made is not given here.

For the molecule `CC(=O)N(O)c1ccc(-c2ccccc2)cc1`, the mutagenic call runs as follows: (Test System: AMES SALMONELLA TYPHIMURIUM, Strain/Indicator: TA98(1,8-DNP6), Metabolic Activation: HUMAN, UROEPITHELIAL CELL, MICROSOMES, Method: PREINCUBATION) “inactive; negative”; (Test System: AMES SALMONELLA TYPHIMURIUM, Strain/Indicator: TA98(1,8-DNP6), Metabolic Activation: NONE, Method: PREINCUBATION) “inactive; negative”; (Test System: AMES SALMONELLA TYPHIMURIUM, Strain/Indicator: TA98(1,8-DNP6), Metabolic Activation: RAT, LIVER, S-9, AROCLOR, Method: PREINCUBATION) “active; positive”; (Test System: AMES SALMONELLA TYPHIMURIUM, Strain/Indicator: TA98, Metabolic Activation: DOG, BLADDER, MICROSOMES, Method: PREINCUBATION) “active; positive”; (Test System: AMES SALMONELLA TYPHIMURIUM, Strain/Indicator: TA98, Metabolic Activation: DOG, LIVER, MICROSOMES, Method: PREINCUBATION) “active; positive”; (Test System: AMES SALMONELLA TYPHIMURIUM, Strain/Indicator: TA98, Metabolic Activation: HUMAN, UROEPITHELIAL CELL, CYTOSOL, Method: PREINCUBATION) “active; positive”. In addition, the mutagenic call runs as follows: (Test System: AMES SALMONELLA TYPHIMURIUM, Strain/Indicator: TA98, Metabolic Activation: HUMAN, UROEPITHELIAL CELL, MICROSOMES, Method: PREINCUBATION) “active; positive”; (Test System: AMES SALMONELLA TYPHIMURIUM, Strain/Indicator: TA98, Metabolic Activation: HUMAN, UROEPITHELIAL CELL, S-9, Method: PREINCUBATION) “active; positive”; under setting [1], “inactive; negative”; (Test System: AMES SALMONELLA TYPHIMURIUM, Strain/Indicator: TA98, Metabolic Activation: RAT, BLADDER, MICROSOMES, Method: PREINCUBATION) “inactive; negative”; (Test System: AMES SALMONELLA TYPHIMURIUM, Strain/Indicator: TA98, Metabolic Activation: RAT, LIVER, CYTOSOL, Method: PREINCUBATION) “active; positive”; (Test System: AMES SALMONELLA TYPHIMURIUM, Strain/Indicator: TA98, Metabolic Activation: RAT, LIVER, MICROSOMES, Method: PREINCUBATION) “active; positive”. Moreover, the mutagenic call by setting is: (Test System: AMES SALMONELLA TYPHIMURIUM, Strain/Indicator: TA98, Metabolic Activation: RAT, LIVER, S-9, AROCLOR, Method: PREINCUBATION) “active; positive”; (Test System: AMES SALMONELLA TYPHIMURIUM, Strain/Indicator: YG1024, Metabolic Activation: HUMAN, UROEPITHELIAL CELL, MICROSOMES, Method: PREINCUBATION) “active; positive”; (Test System: UDS HUMAN FIBROBLASTS, Strain/Indicator: THY INCORP (NON-S-PHASE), Metabolic Activation: NONE, Method: AUTORADIOGRAPHY) “active; positive”.
On to `COc1ccc2c3c1O[C@H]1[C@@H](O)C=C[C@H]4[C@@H](C2)N(C)CC[C@@]341`, for which the mutagenic call was “inactive; negative” (Test System: AMES SALMONELLA TYPHIMURIUM, Strain/Indicator: TA97, Metabolic Activation: HAMSTER, LIVER, S-9, AROCLOR 1254 (10 OR 30%), Method: PREINCUBATION); “inactive; negative” (Test System: AMES SALMONELLA TYPHIMURIUM, Strain/Indicator: TA97, Metabolic Activation: NONE, Method: PREINCUBATION); “inactive; negative” (Test System: AMES SALMONELLA TYPHIMURIUM, Strain/Indicator: TA97, Metabolic Activation: RAT, LIVER, S-9, AROCLOR 1254 (10 OR 30%), Method: PREINCUBATION); “inactive; negative” (Test System: AMES SALMONELLA TYPHIMURIUM, Strain/Indicator: TA98, Metabolic Activation: HAMSTER, LIVER, S-9, AROCLOR 1254 (10 OR 30%), Method: PREINCUBATION); “inactive; negative” under setting [1]; “inactive; negative” (Test System: AMES SALMONELLA TYPHIMURIUM, Strain/Indicator: TA98, Metabolic Activation: RAT, LIVER, S-9, AROCLOR 1254 (10 OR 30%), Method: PREINCUBATION). For the same molecule, the mutagenic call is “inactive; negative” (Test System: AMES SALMONELLA TYPHIMURIUM, Strain/Indicator: TA100, Metabolic Activation: HAMSTER, LIVER, S-9, AROCLOR 1254 (10 OR 30%), Method: PREINCUBATION); “inactive; negative” under setting [2]; “inactive; negative” (Test System: AMES SALMONELLA TYPHIMURIUM, Strain/Indicator: TA100, Metabolic Activation: RAT, LIVER, S-9, AROCLOR 1254 (10 OR 30%), Method: PREINCUBATION); “inactive; negative” (Test System: AMES SALMONELLA TYPHIMURIUM, Strain/Indicator: TA1535, Metabolic Activation: HAMSTER, LIVER, S-9, AROCLOR 1254 (10 OR 30%), Method: PREINCUBATION); “inactive; negative” (Test System: AMES SALMONELLA TYPHIMURIUM, Strain/Indicator: TA1535, Metabolic Activation: NONE, Method: PREINCUBATION); “inactive; negative” (Test System: AMES SALMONELLA TYPHIMURIUM, Strain/Indicator: TA1535, Metabolic Activation: RAT, LIVER, S-9, AROCLOR 1254 (10 OR 30%), Method: PREINCUBATION).
As to `CC1(c2ccc(-c3ccccc3)cc2)CO1` (centres undefined), the mutagenic call under setting [2] is “active; positive”.
With `CC12CCC(CC1=O)C2(C)C` (centres undefined) (tested in a mixture with another compound), the mutagenic call was “active; positive (structural changes)” (End Point: IN VITRO CHROMOSOMAL ABERRATIONS, Test System: SYRIAN HAMSTER EMBRYO (SHE) CELLS, Metabolic Activation: NONE) and “inactive; negative” (End Point: In vitro chromosomal aberrations, Test System: D824 human dental pulp cells, Metabolic Activation: Rat, Liver, Postmitochondrial supernate (5%)).
With `COCc1ccc([N+]#N)cc1`, the mutagenic call runs as follows: (Test System: AMES SALMONELLA TYPHIMURIUM, Strain/Indicator: TA102, Metabolic Activation: NONE, Method: STANDARD PLATE) “active; positive”; (Test System: CHINESE HAMSTER V-79, Strain/Indicator: V-79/6-THIOGUANINE, Metabolic Activation: NONE) “active; positive”.
For `CN(C(=O)CCl)c1snc2ccccc12`, the mutagenic call runs as follows: under setting [3], “inactive; negative”; (Test System: AMES SALMONELLA TYPHIMURIUM, Strain/Indicator: TA98, Metabolic Activation: S-9, Method: STANDARD PLATE) “inactive; negative”; under setting [4], “inactive; negative”; (Test System: AMES SALMONELLA TYPHIMURIUM, Strain/Indicator: TA100, Metabolic Activation: S-9, Method: STANDARD PLATE) “inactive; negative”; (Test System: AMES SALMONELLA TYPHIMURIUM, Strain/Indicator: TA1535, Metabolic Activation: NONE, Method: STANDARD PLATE) “inactive; negative”; (Test System: AMES SALMONELLA TYPHIMURIUM, Strain/Indicator: TA1535, Metabolic Activation: S-9, Method: STANDARD PLATE) “inactive; negative”. The mutagenic call was “inactive; negative” (Test System: AMES SALMONELLA TYPHIMURIUM, Strain/Indicator: TA1537, Metabolic Activation: NONE, Method: STANDARD PLATE) and “inactive; negative” (Test System: AMES SALMONELLA TYPHIMURIUM, Strain/Indicator: TA1537, Metabolic Activation: S-9, Method: STANDARD PLATE).
With `C=CCc1[c-]cccc1.C=CCc1[c-]cccc1.[Pt+2].c1ccc(P(c2ccccc2)c2ccccc2)cc1`, the mutagenic call is “inactive; negative” (Test System: AMES SALMONELLA TYPHIMURIUM, Strain/Indicator: TA92, Metabolic Activation: NONE, Method: STANDARD PLATE); “active; positive” under setting [3]; “inactive; negative” under setting [4]; “inactive; negative” (Test System: AMES SALMONELLA TYPHIMURIUM, Strain/Indicator: TA2410, Metabolic Activation: NONE, Method: STANDARD PLATE).
